One molecule from patent US20190175560A1, “MEBENDAZOLE CANCER THERAPIES AND METHODS OF USE” (Shepherd Therapeutics, Inc., priority 2017, published 2019) can be followed below.

Format in all cases: cell-based
One assay has as its system TOV-112D cells. The experiment in a line: MBZ cell viability IC50 (CellTiter Glo). Particulars: Homo sapiens, TOV112D, 72 hours. Here is the method:
(§1) The effect of mebendazole administration on cell lines derived from exemplary cancers was tested. One approach to determining the effectiveness of mebendazole in the treatment of cancer comprises in vitro testing. In this approach, cancer cell lines representative of the cancers of the disclosure are cultured in vitro according to standard techniques (see, for example, Human Cell Culture Protocols, Third Edition, […] R. D. Hughes, Editors, Humana Press, 2012), and increasing concentrations of mebendazole are administered to determine the IC50 value. As used herein, the term “IC50 value” refers to the concentration of a compound (for example mebendazole) wherein the response to that compound (such as inhibited cellular viability) is reduced by half. The IC50 is thus a measure of the effectiveness of a compound in inhibiting a biological process. […] Based on this biology, several rare cancer tumor cell lines including neuroblastoma, rhabdomyosarcoma and Ewing sarcoma were analyzed for sensitivity to MBZ treatment in vitro. […] In all cases, including those described below, the viable cells were determined using the CellTiter Glo® kit and an IC50 curve was generated using the PRISM software. […] FIGS. 1 and 2 show the effect of mebendazole on 3 ovarian cancer derived cell lines, A2780cis, SKOV-3 and TOV-112D at 24 hours, 48 hours and 72 hours. […] Percent cell viability is shown on the Y-axis, from 0 to 150 in units of 25. A2780cis cell data are represented by filled circles and a dotted line. SKOV-3 cell data are represented by squares and a solid line. TOV-112D cell data are represented by triangles and a dashed line. […] In FIG. 2, on the X-axis, the log concentration of mebendazole in μM, indicated from -4 to 4 in units of 2. In FIG. 2, on the Y-axis, percent viability is shown, from 0 to 125 in units of 25.
(In ATP-based viability assays light output follows the ATP content of the culture.)

The test system of assay [1] is SKOV-3 ovarian carcinoma cell line. The experiment in a line: MBZ cell viability IC50 (CellTiter Glo). To be noted: Homo sapiens, SK-OV-3, 72 hours, 0-50 μM. The method, then:
as §1

A further assay has as its system A2780cis cells. The experiment in a line: MBZ cell viability IC50 (CellTiter Glo). Particulars: 72 hours. The method, then:
as §1

Assay [2] deals with PC12 pheochromocytoma/paraganglioma cell line. The experiment in a line: Synergy of MBZ or HA-PLGA-MBZ with chemotherapeutic agents (Chou-Talalay CI, Cell Titer Glo). To be noted: PC12 + Vincristine.
Procedure: (§4) For in vitro experiments, cells were plated in triplicate and treated with a range of concentrations of MBZ and relevant chemotherapeutic agents in a complete Latin square.
(§5) Cells were plated in triplicate and treated with a range of 5 concentrations of MBZ in combination with 5 concentrations of chemotherapeutic agents in a complete Latin square. Following a 72 hour incubation, cell viability was determined using Cell Titer Glo.
(§6) In table 22 below, cells were plated in triplicate and treated with a range of 5 concentrations of MBZ or HA-PLGA-MBZ nanoparticles containing a molar equivalent of MBZ, and 5 concentrations of relevant chemotherapeutic agents in a complete Latin square. Combination indexes (CI) were determined based on the method described by Chou-Talalay with a CI value less than 0.9 indicating synergy. […] Numbers in parentheses represent the range of synergistic CI values for each cell line and drug combination.
In assay [3] the test system is CHP-212 neuroblastoma cells. Described as above. Particulars: CHP-212 + 4-HC.
Procedure: as §4, §5, §6
The next assay relates to CHP-212 cells. The experiment in a line: MBZ vs HA-PLGA-MBZ cell viability IC50 (Cell Titer Glo). To be noted: Homo sapiens, 72 hour incubation. An excerpt:
(§2) An IC50 for each treatment was established using the PRISM software.

Another assay has as its system COLO-205 cells. The assay is described as above. To be noted: Homo sapiens, 72 hour incubation.
Source text: as §2

Another assay concerns PC-12 cells. Described as above. To be noted: Rattus norvegicus, 72 hour incubation.
Source text: as §2

Another assay concerns SK-UT-1 cells. The description is as above. To be noted: Homo sapiens, 72 hour incubation.
Source text: as §2

The test system of the next assay is DMS-114 cells. The description is as above. To be noted: Homo sapiens, 72 hour incubation.
Source text: as §2

The test system of another assay is HCT-116 cells. The description is as above. To be noted: Homo sapiens, 72 hour incubation.
Source text: as §2

Another assay relates to SNU-16 cells. The assay is described as above. Particulars: Homo sapiens, 72 hour incubation.
Source text: as §2

A further assay relates to NCI-H295R cells. The assay is described as above. To be noted: Homo sapiens, 72 hour incubation.
Source text: as §2

The test system of a further assay is SKOV-3 cells. Described as above. To be noted: Homo sapiens, SK-OV-3, 72 hour incubation.
Source text: as §2

The next assay relates to SW-1271 cells. Described as above. Particulars: SW1271, 72 hour incubation.
Source text: as §2

Another assay relates to COV-362 cells. The description is as above. Particulars: COV362, 72 hour incubation.
Source text: as §2

Assay [4] has as its system multiple rare cancer tumor cell lines. The experiment in a line: MBZ alone, cell viability IC50 in rare cancer tumor cell lines (Example 3). Particulars: read-out: IC50s (range over cell lines). Here is the method:
The FDA-approved anti-helminthic drug mebendazole (MBZ) has been reported to affect several biological pathways involved in tumor growth and metastasis. Based on this activity, multiple rare cancer tumor cell lines including, but not limited to, neuroblastoma, carcinoid tumors, esophageal adenocarcinoma, gastrointestinal stromal tumors, leiomyosarcoma, pheochromocytoma, and mesothelioma were analyzed for their susceptibility to MBZ treatment alone or in combination with standard chemotherapeutic agents in vitro.

In assay [5] the test system is IMR-32 neuroblastoma cell line. The assay can be described thus: MBZ cell viability IC50 (CellTiter Glo). To be noted: Homo sapiens, 72 hours. The method, then:
(§3) The effect of mebendazole administration on cell lines derived from exemplary cancers was tested. One approach to determining the effectiveness of mebendazole in the treatment of cancer comprises in vitro testing. In this approach, cancer cell lines representative of the cancers of the disclosure are cultured in vitro according to standard techniques (see, for example, Human Cell Culture Protocols, Third Edition, […] R. D. Hughes, Editors, Humana Press, 2012), and increasing concentrations of mebendazole are administered to determine the IC50 value. As used herein, the term “IC50 value” refers to the concentration of a compound (for example mebendazole) wherein the response to that compound (such as inhibited cellular viability) is reduced by half. The IC50 is thus a measure of the effectiveness of a compound in inhibiting a biological process. […] Based on this biology, several rare cancer tumor cell lines including neuroblastoma, rhabdomyosarcoma and Ewing sarcoma were analyzed for sensitivity to MBZ treatment in vitro. […] In all cases, including those described below, the viable cells were determined using the CellTiter Glo® kit and an IC50 curve was generated using the PRISM software. […] The neuroblastoma cell lines IMR-32, CHP-212, and SK-N-AS were treated with ten serial dilutions of mebendazole for 72 hours.

Assay [6] has as its system SK-N-AS neuroblastoma cell line. The experiment in a line: MBZ cell viability IC50 (CellTiter Glo). To be noted: Homo sapiens, 72 hours. The method, then:
as §3

For assay [7], the system named is CHP-212 neuroblastoma cell line. The experiment in a line: MBZ cell viability IC50 (CellTiter Glo). To be noted: Homo sapiens, 72 hours. Here is the method:
as §3

SMILES strings stand for the structures. A value given as a limit tells only on which side of the number the result lay.

In the case of `COC(=O)Nc1nc2ccc(C(=O)c3ccccc3)cc2[nH]1` [MBZ, methyl N-(6-benzoyl-1H-benzimidazol-2-yl)carbamate], the IC50 is 200 nM in the assay on TOV-112D cells; approximately 4400 nM in assay [1]; 250 nM in the assay on A2780cis cells; 130 nM in the assay on CHP-212 cells; 270 nM in the assay with COLO-205 cells; 1030 nM in the assay with PC-12 cells. Moreover, the IC50 in the assay with SK-UT-1 cells is 260 nM; in the assay on DMS-114 cells, 800 nM; in the assay on HCT-116 cells it was 320 nM; in the assay with SNU-16 cells, 110 nM; in the assay on NCI-H295R cells it was 330 nM; in the assay with SKOV-3 cells, 680 nM. The IC50 in the assay with SW-1271 cells was more than 50000 nM; with COV-362 cells it was 330 nM; in assay [4] it was 90 to 2200 nM; in [5] it was 50 nM; in assay [6], 680 nM; in [7], 130 nM. Further, the “range of synergistic CI values” in [2] is listed as “Yes- (0.274-0.870)”; in assay [3], 0.569-0.860.
